In article PMC8654847, “Design of a methotrexate-controlled chemical dimerization system and its use in bio-electronic devices” (Nature Communications, 2021):

Molecular target: T1, anti-MTX VHH
T1 construct: nanoCLAMP8-VHH fusion for the crystal structure 7RG7
Test: microscale thermophoresis (EGFP-VHH titrated with MTX); […] Å crystal structure of the ternary complex with nanoCLAMP8
Format: binding

## CN(Cc1cnc2nc(N)nc(N)c2n1)c1ccc(C(=O)N[C@@H](CCC(=O)O)C(=O)O)cc1 [MTX, methotrexate]
  Kd: 4.3 ± 0.25 nM
